{
  "source": "paper PMC9787607",
  "about": "“A Novel Protocol for the Synthesis of 1,2,4-Oxadiazoles Active against Trypanosomatids and Drug-Resistant Leukemia Cell Lines” (Tropical Medicine and Infectious Disease, 2022)",
  "key": {"[1]": {"target": "T1, human serum albumin (HSA) (Homo sapiens, UniProt P02768)", "T1 construct": "purchased Sigma-Aldrich A3782-1G", "T1 sequence (P02768 25-609)": "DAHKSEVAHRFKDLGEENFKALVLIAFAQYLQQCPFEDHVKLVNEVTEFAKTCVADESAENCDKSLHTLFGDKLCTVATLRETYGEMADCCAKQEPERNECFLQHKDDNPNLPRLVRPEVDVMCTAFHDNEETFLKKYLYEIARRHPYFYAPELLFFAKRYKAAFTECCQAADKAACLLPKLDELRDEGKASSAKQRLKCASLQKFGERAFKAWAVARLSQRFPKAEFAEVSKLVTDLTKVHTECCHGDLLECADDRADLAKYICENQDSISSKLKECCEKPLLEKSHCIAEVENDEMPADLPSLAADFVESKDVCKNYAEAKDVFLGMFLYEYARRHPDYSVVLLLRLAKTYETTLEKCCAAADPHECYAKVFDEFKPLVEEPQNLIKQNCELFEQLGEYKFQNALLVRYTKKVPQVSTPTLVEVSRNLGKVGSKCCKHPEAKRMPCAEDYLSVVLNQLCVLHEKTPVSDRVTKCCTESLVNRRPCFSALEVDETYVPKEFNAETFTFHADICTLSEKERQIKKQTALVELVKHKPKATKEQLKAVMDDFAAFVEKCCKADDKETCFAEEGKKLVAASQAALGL", "assay": "Competitive binding with HSA site probes (warfarin, ibuprofen, digitoxin)", "description": "Competitive binding studies were carried out using site probes for sites I, II, and III, i.e., warfarin, ibuprofen, and digitoxin, respectively. The HSA and site probes were used at a fixed concentration (1.0 × 10^−5 M), and the fluorescence quenching titration with compound 23 was performed as described previously for the steady-state fluorescence quenching procedure at 310 K."}, "[2]": {"target": "T1, human serum albumin (HSA)", "assay": "Time-resolved fluorescence of HSA", "assay_type": "binding", "settings": "HSA 1.0 × 10^−5 M with 23 1.32 × 10^−5 M, pH 7.4, 296 K", "description": "Time-resolved fluorescence measurements were performed on a model FL920 CD fluorimeter from Edinburgh Instruments equipped with an EPL laser (λexc = 280 ± 10 nm; pulse of 850 ps with energy of 1.8 µW/pulse; monitoring emission at 340 nm). The time-resolved fluorescence decays of a 3.0 mL HSA solution (1.0 × 10^−5 M, in PBS) were obtained without and with compound 23 (1.32 × 10^−5 M)."}, "[3]": {"target": "T1, human serum albumin (HSA)", "assay": "Circular dichroism of HSA", "assay_type": "binding", "settings": "HSA 1.0 × 10^−6 M, proportion 1:10, 310 K", "description": "The CD analysis was carried out using 3.0 mL of HSA solution (1.0 × 10^−6 M, in PBS) without and with 23 in the proportion 1:10 in the 200–250 nm range at 310 K. The average spectra were obtained from three successive runs and corrected by subtraction of the buffer signal. The secondary structure content was estimated by analysis of the CD spectra using the online server BestSel (Beta Structure Selection http://bestsel.elte.hu/index.php; accessed on 12 March 2022)."}, "[4]": {"target": "T1, human serum albumin (HSA)", "assay": "Steady-state fluorescence quenching of HSA", "assay_type": "binding", "settings": "for KSV (Stern-Volmer quenching constant) / kq (bimolecular quenching rate constant) / n (number of binding sites): PBS", "description": "Steady-state fluorescence and circular dichroism (CD) spectra were measured on a Jasco J-815 optical spectrometer employing a Jasco PFD-425S15F thermostatic cuvette holder. All spectra were recorded with appropriate background corrections. For the steady-state fluorescence data, inner filter corrections were performed, following the literature.\nThe steady-state fluorescence measurements were carried out in the 290–450 nm range (λexc = 280 nm) at 289, 296, 303, 310, and 317 K. The addition of compound 23 to a 3.0 mL HSA solution (1.0 × 10^−5 M, in PBS) was done manually, achieving final concentrations of 0.17, 0.33, 0.50, 0.66, 0.83, 0.99, 1.15, and 1.32 × 10^−5 M. To obtain quantitative information on the binding capacity of 23 to HSA, Stern-Volmer, double-logarithmic, van’t Hoff, and Gibbs’ free energy analysis were applied following our previous works."}},
  "data": [
    {"smiles": "COc1cc(/C=C/c2nc(-c3cc(OC)c(OC)c(OC)c3)no2)cc(OC)c1OC", "note": "[Compound 23, (E)-3-(3,4,5-trimethoxyphenyl)-5-[2-(3,4,5-trimethoxyphenyl)-vinyl]-1,2,4-oxadiazole]", "values": [
      {"measurement": "decrease of the KSV value in the presence of warfarin", "setting": "[1]; 310 K", "value": 14, "unit": "%"},
      {"measurement": "main binding site in HSA", "setting": "[1]; competitive binding with site probes", "value": "subdomain IIA (site I)"},
      {"measurement": "%Relative τ1 of HSA:23", "setting": "[2]", "value": 23.5, "unit": "%"},
      {"measurement": "%Relative τ2 of HSA:23", "setting": "[2]", "value": 76.5, "unit": "%"},
      {"measurement": "τ1 of HSA:23", "setting": "[2]", "value": "1.59 ± 0.11", "unit": "ns"},
      {"measurement": "τ2 of HSA:23", "setting": "[2]", "value": "5.70 ± 0.12", "unit": "ns"},
      {"measurement": "τaverage of HSA:23", "setting": "[2]", "value": "4.73 ± 0.11", "unit": "ns"},
      {"measurement": "effect on the secondary content of HSA (CD)", "setting": "[3]", "value": "does not significantly perturb"},
      {"measurement": "ΔG°", "setting": "[4]; 289 K", "value": "−28.7", "unit": "kJmol^−1"},
      {"measurement": "KSV (Stern-Volmer quenching constant)", "setting": "[4]; 289 K", "value": "1.56 ± 0.02 × 10^5 M^−1"},
      {"measurement": "kq (bimolecular quenching rate constant)", "setting": "[4]; 289 K", "value": "3.22e+13", "unit": "M⁻¹ s⁻¹"},
      {"measurement": "n (number of binding sites)", "setting": "[4]; 289 K", "value": "0.992 ± 0.01"},
      {"measurement": "KSV values, order of magnitude", "setting": "[4]; 289–317 K", "value": "~10^5 M^−1"},
      {"measurement": "kq values, order of magnitude", "setting": "[4]; 289–317 K", "value": "~10^13 M^−1s^−1"},
      {"measurement": "ΔG°", "setting": "[4]; 296 K", "value": "−29.2", "unit": "kJmol^−1"},
      {"measurement": "KSV (Stern-Volmer quenching constant)", "setting": "[4]; 296 K", "value": "1.44 ± 0.02 × 10^5 M^−1"},
      {"measurement": "kq (bimolecular quenching rate constant)", "setting": "[4]; 296 K", "value": "2.97e+13", "unit": "M⁻¹ s⁻¹"},
      {"measurement": "n (number of binding sites)", "setting": "[4]; 296 K", "value": "1.04 ± 0.01"},
      {"measurement": "ΔG°", "setting": "[4]; 303 K", "value": "−29.7", "unit": "kJmol^−1"},
      {"measurement": "KSV (Stern-Volmer quenching constant)", "setting": "[4]; 303 K", "value": "1.31 ± 0.07 × 10^5 M^−1"},
      {"measurement": "kq (bimolecular quenching rate constant)", "setting": "[4]; 303 K", "value": "2.7e+13", "unit": "M⁻¹ s⁻¹"},
      {"measurement": "n (number of binding sites)", "setting": "[4]; 303 K", "value": "1.09 ± 0.01"},
      {"measurement": "ΔG°", "setting": "[4]; 310 K", "value": "−30.2", "unit": "kJmol^−1"},
      {"measurement": "KSV (Stern-Volmer quenching constant)", "setting": "[4]; 310 K", "value": "1.22 ± 0.01 × 10^5 M^−1"},
      {"measurement": "kq (bimolecular quenching rate constant)", "setting": "[4]; 310 K", "value": "2.52e+13", "unit": "M⁻¹ s⁻¹"},
      {"measurement": "n (number of binding sites)", "setting": "[4]; 310 K", "value": "1.02 ± 0.01"},
      {"measurement": "ΔG°", "setting": "[4]; 317 K", "value": "−30.7", "unit": "kJmol^−1"},
      {"measurement": "KSV (Stern-Volmer quenching constant)", "setting": "[4]; 317 K", "value": "1.19 ± 0.02 × 10^5 M^−1"},
      {"measurement": "kq (bimolecular quenching rate constant)", "setting": "[4]; 317 K", "value": "2.45e+13", "unit": "M⁻¹ s⁻¹"},
      {"measurement": "n (number of binding sites)", "setting": "[4]; 317 K", "value": "1.02 ± 0.01"},
      {"measurement": "ΔH°", "setting": "[4]; van't Hoff analysis, 289–317 K", "value": "−7.85 ± 0.71", "unit": "kJmol^−1"},
      {"measurement": "ΔS°", "setting": "[4]; van't Hoff analysis, 289–317 K", "value": "72.2 ± 2.3 J/(mol·K)"}
    ]}
  ]
}
